We go through 29 compounds from patent US7524847B2, “Fused 1,3-dihydro-imidazole ring compounds” (Eisai R&D Management Co., Ltd., priority 2002, dated 2009).

Structures can show the parent of a compound that is named as a salt.

The assay has as its target T1, DPP-IV obtained from pig kidney (Sus scrofa, UniProt P22411).
T1 construct: DPP-IV obtained from pig kidney; from tissue; host or cells: pig kidney
Description: Measurement of DPPIV-inhibiting activity (in vitro experiment). It is filed as biochemical. As to conditions: DPP-IV from pig kidney 10 mU/mL, substrate Gly-Pro-p-nitroanilide 0.33 mM, 20 min preincubation, 20 min reaction, absorbance 405 nm. Here is the method:
DPP-IV obtained from pig kidney was dissolved in a reaction buffer (50 mM Tris-HCl pH7.4, 0.1% BSA) at 10 mU/mL, and 110 μL of this was used. 15 μL of the drug obtained from the aforementioned Examples was added, and this was incubated at room temperature for 20 minutes, and then 25 μL of a 2 mM solution of Gly-Pro-p-nitroanilide (final concentration 0.33 mM) was added to start the enzymatic reaction. The reaction time was 20 minutes, and 1 N phosphoric acid solution (25 μL) was added to stop the reaction.

T1 sequence (P22411 whole entry): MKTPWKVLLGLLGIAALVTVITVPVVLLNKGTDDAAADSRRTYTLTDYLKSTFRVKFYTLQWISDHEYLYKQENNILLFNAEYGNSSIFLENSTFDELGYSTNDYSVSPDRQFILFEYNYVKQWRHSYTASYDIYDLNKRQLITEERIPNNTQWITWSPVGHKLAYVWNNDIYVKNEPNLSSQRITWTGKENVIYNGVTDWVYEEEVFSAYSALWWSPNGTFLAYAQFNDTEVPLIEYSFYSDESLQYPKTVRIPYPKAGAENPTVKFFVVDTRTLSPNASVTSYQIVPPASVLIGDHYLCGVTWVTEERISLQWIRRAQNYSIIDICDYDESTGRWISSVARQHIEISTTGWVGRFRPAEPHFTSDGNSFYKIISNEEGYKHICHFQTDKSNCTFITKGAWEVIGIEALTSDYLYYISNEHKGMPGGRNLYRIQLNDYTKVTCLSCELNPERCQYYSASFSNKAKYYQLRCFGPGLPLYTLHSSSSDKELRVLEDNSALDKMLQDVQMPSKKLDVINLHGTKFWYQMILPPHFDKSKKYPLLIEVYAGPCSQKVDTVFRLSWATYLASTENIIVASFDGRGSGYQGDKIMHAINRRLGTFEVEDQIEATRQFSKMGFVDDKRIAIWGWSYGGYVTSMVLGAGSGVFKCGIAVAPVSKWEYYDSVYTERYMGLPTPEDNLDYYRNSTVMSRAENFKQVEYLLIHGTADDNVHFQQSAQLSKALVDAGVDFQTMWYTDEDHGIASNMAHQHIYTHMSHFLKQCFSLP

Take `CC#CCn1c(=O)n(-c2ccc(=O)[nH]c2)c2ncnc(N3CCNCC3)c21` [Example 67, 7-(2-Butynyl)-9-(6-oxo-16-dihydro-pyridin-3-yl)-6-(piperazin-1-yl)-7,9-dihydropurin-8-one trifluoroacetic acid salt]: half-maximal inhibition (IC50) was put at 49.8 nM.
The same measure for `C=CCn1c(=O)n(CC#CC)c2c(N3CCNCC3)nc(OCC)nc21` [Example 59, 9-Allyl-7-(2-butynyl)-2-ethoxy-6-(piperazin-1-yl)-7,9-dihydropurin-8-one trifluoroacetic acid salt]: 119 nM; for `CC#CCn1c(=O)n(C)c2nc(O)nc(N3CCNCC3)c21` [Example 8, 7-(2-Butynyl)-2-hydroxy-9-methyl-6-(piperazin-1-yl)-7,9-dihydropurin-8-one trifluoroacetic acid salt]: 1160 nM.
Take `Cn1c(=O)n(Cc2ccccc2)c2c(N3CCNCC3)ncnc21` [Example 78, 7-Benzyl-9-methyl-6-(piperazin-1-yl)-7,9-dihydropurin-8-one trifluoroacetic acid salt]: the IC50 came out at 3800 nM.
The compound `CC#CCn1c(=O)n(CCC)c2nc(Cl)nc(N3CCNCC3)c21` [Example 30, 7-(2-Butynyl)-2-chloro-6-(piperazin-1-yl)-9-propyl-7,9-dihydropurin-8-one trifluoroacetic acid salt] showed an IC50 of 132 nM.
Consider `CC#CCn1c(=O)n(-c2ccccc2)c2nc(Cl)nc(N3CCNCC3)c21` [Example 41, 7-(2-Butynyl)-2-chloro-9-phenyl-6-(piperazin-1-yl)-7,9-dihydropurin-8-one trifluoroacetic acid salt], for which the IC50 was 91.7 nM.
Regarding `CC#CCn1c(=O)n(C)c2nc(NCc3ccccc3)nc(N3CCNCC3)c21` [Example 17, 2-Benzylamino-7-(2-butynyl)-9-methyl-6-(piperazin-1-yl)-7,9-dihydropurin-8-one trifluoroacetic acid salt], the concentration for half-maximal inhibition (IC50) stood at 263 nM.
As for `CC#CCn1c(=O)n(C)c2nc(Oc3ccccc3)nc(N3CCNCC3)c21` [Example 12, 7-(2-Butynyl)-9-methyl-2-phenoxy-6-(piperazin-1-yl)-7,9-dihydropurin-8-one trifluoroacetic acid salt], the IC50 was 47.4 nM.
The same measure for `CC#CCn1c(=O)n(-c2ccccc2)c2ncnc(N3CCNCC3)c21` [Example 62, 7-(2-Butynyl)-9-phenyl-6-(piperazin-1-yl)-7,9-dihydropurin-8-one trifluoroacetic acid salt]: 139 nM.
`CC#CCn1c(=O)n(-c2ccc(C#N)cc2)c2nc(Cl)nc(N3CCNCC3)c21` [Example 42, 4-[7-(2-Butynyl)-2-chloro-8-oxo-6-(piperazin-1-yl)-7,8-dihydropurin-9-yl]benzonitrile trifluoroacetic acid salt]: the half-inhibitory concentration (IC50) was 42.5 nM.
The same measure for `CC#CCn1c(=O)n(CCc2ccccc2)c2ncnc(N3CCNCC3)c21` [Example 74, 7-(2-Butynyl)-9-phenethyl-6-(piperazin-1-yl)-7,9-dihydropurin-8-one trifluoroacetic acid salt]: 14 nM.
In turn, `CC#CCn1c(=O)n(CC#N)c2nc(Cl)nc(N3CCNCC3)c21` [Example 32, [7-(2-Butynyl)-2-chloro-8-oxo-6-(piperazin-1-yl)-7,8-dihydropurin-9-yl]acetonitrile trifluoroacetic acid salt] gave an IC50 of 212 nM.
Compound `CC#CCn1c(=O)n(C)c2nc(Cl)nc(N3CCCC(N)C3)c21` (centres unmarked) [Example 27, 6-(3-Amino-piperidin-1-yl)-7-(2-butynyl)-2-chloro-9-methyl-7,9-dihydropurin-8-one trifluoroacetic acid salt] registered an IC50 of 3140 nM.
In the case of `CC#CCn1c(=O)n(C)c2nc(N(CC)CC)nc(N3CCNCC3)c21` [Example 3, 7-(2-Butynyl)-2-diethylamino-9-methyl-6-(piperazin-1-yl)-7,9-dihydropurin-8-one trifluoroacetic acid salt], the IC50 was determined as 325 nM.
Regarding `CC#CCn1c(=O)n(CCc2ccccc2)c2nc(Cl)nc(N3CCNCC3)c21` [Example 34, 7-(2-Butynyl)-2-chloro-9-(2-phenylethyl)-6-(piperazin-1-yl)-7,9-dihydropurin-8-one trifluoroacetic acid salt], the half-inhibitory concentration (IC50) stood at 14.8 nM.
`CC#CCn1c(=O)n(-c2ccoc2)c2nc(Cl)nc(N3CCNCC3)c21` [Example 44, 7-(2-Butynyl)-2-chloro-9-(furan-3-yl)-6-(piperazin-1-yl)-7,9-dihydropurin-8-one trifluoroacetic acid salt] returned a half-inhibitory concentration (IC50) of 132 nM.
With `CC#CCn1c(=O)n(Cc2ccccc2C(N)=O)c2nc(Cl)nc(N3CCNCC3)c21` [Example 39, 2-[7-(2-Butynyl)-2-chloro-8-oxo-6-(piperazin-1-yl)-7,8-dihydropurin-9-ylmethyl]benzamide trifluoroacetic acid salt], the IC50 worked out at 32.3 nM.
`CC#CCn1c(=O)[nH]c2ncnc(N3CCNCC3)c21` [Example 75, 7-(2-Butynyl)-6-(piperazin-1-yl)-7,9-dihydropurin-8-one trifluoroacetic acid salt] returned a half-maximal inhibitory concentration (IC50) of 921 nM.
For `N#Cc1ccccc1Cn1c(=O)n(Cc2ccccc2)c2c(N3CCNCC3)ncc(Oc3ccccc3C(N)=O)c21` [Example 81, 2-[3-Benzyl-1-(2-cyanobenzyl)-2-oxo-4-piperazin-1-yl-2,3-dihydro-1H-imidazo[4.5-c]pyridin-7-yloxy]-benzamide trifluoroacetic acid salt] the value was 409 nM.
The same measure for `CCC#CCn1c(=O)n(C)c2nc(Cl)nc(N3CCNCC3)c21` [Example 18, 2-Chloro-9-methyl-7-(2-pentynyl)-6-(piperazin-1-yl)-7,9-dihydropurin-8-one trifluoroacetic acid salt]: 972 nM; for `CC#CCn1c(=O)n(C)c2nc(SC)nc(N3CCNCC3)c21` [Example 9, 7-(2-Butynyl)-2-methylsulfanyl-9-methyl-6-(piperazin-1-yl)-7,9-dihydropurin-8-one trifluoroacetic acid salt]: 214 nM; for `CC#CCn1c(=O)n(-c2ccsc2)c2nc(OC)nc(N3CCNCC3)c21` [Example 57, 7-(2-Butynyl)-9-(thiophen-3-yl)-2-methoxy-6-(piperazin-1-yl)-7,9-dihydropurin-8-one trifluoroacetic acid salt]: 77.5 nM.
`CC#CCn1c(=O)n(C)c2nc(Cl)nc(N3CCNCC3)c21` [Example 2, 7-(2-Butynyl)-2-chloro-9-methyl-6-(piperazin-1-yl)-7,9-dihydropurin-8-one trifluoroacetic acid salt] had an IC50 of 86.4 nM.
As for `CC#CCn1c(=O)n(-c2ccc(OC)nc2)c2ncnc(N3CCNCC3)c21` [Example 66, 7-(2-Butynyl)-9-(6-methoxy-pyridin-3-yl)-6-(piperazin-1-yl)-7,9-dihydropurin-8-one trifluoroacetic acid salt], half-maximal inhibition (IC50) required 59.3 nM.
Compound `CC#CCn1c(=O)n(Cc2ccccc2C#N)c2nc(OC)nc(N3CCNCC3)c21` [Example 50, 2-[7-(2-Butynyl)-2-methoxy-8-oxo-6-(piperazin-1-yl)-7,8-dihydropurin-9-ylmethyl]benzonitrile trifluoroacetic acid salt] came in with an IC50 of 3.65 nM.
Compound `CC#CCn1c(=O)n(C)c2nc(N)nc(N3CCNCC3)c21` [Example 6, 2-Amino-7-(2-butynyl)-9-methyl-6-(piperazin-1-yl)-7,9-dihydropurin-8-one trifluoroacetic acid salt] came in with an IC50 of 450 nM.
With `CC#CCn1c(=O)n(-c2ccoc2)c2ncnc(N3CCNCC3)c21` [Example 63, 7-(2-Butynyl)-9-(furan-3-yl)-6-(piperazin-1-yl)-7,9-dihydropurin-8-one trifluoroacetic acid salt], inhibition was half-maximal at 146 nM (IC50).
Turning to `CC#CCn1c(=O)n(CCc2ccc(Br)cc2)c2nc(Cl)nc(N3CCNCC3)c21` [Example 35, 9-[2-(4-Bromophenyl)-ethyl]-7-(2-butynyl)-2-chloro-6-(piperazin-1-yl)-7,9-dihydropurin-8-one trifluoroacetic acid salt], the IC50 stood at 26.6 nM.
Take `CC#CCn1c(=O)n(C)c2nc(Cl)nc(N3CCCC(NC)C3)c21` (centres unmarked) [Example 28, 7-(2-Butynyl)-2-chloro-9-methyl-6-(3-methylamino-piperidin-1-yl)-7,9-dihydropurin-8-one trifluoroacetic acid salt]: the IC50 is 89500 nM.
